Assay: recombinant barcode read abundance after kanamycin selection (control-corrected) (log10(CPM+1)); higher = more efficient recombination; sequences stand for … in AGTGCAGAGAAAATCGGCCAGTTTTCTCTGCCTGCAGTCCGCATGCCGT…AGATTTATGCAGCGGACTGCCTTTCTCCCAAAGTGATAAACCGGACAGTATCATGGACCGGTTTTCCCGGTAATCCGTATTTGCAAGGTTGGTTTCACT; site = the 11-nt target
How it was run: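 For this pooled screen, each oligo contained a promoter, a target, a barcode and the J23119-driven first 104 bases of the bridge RNA. Gibson cloning placed it into a vector supplying the remaining 73 bp and a T7-inducible recombinase, and the pool was co-electroporated into E. coli with a donor plasmid. Recombination efficiency is derived from barcode counts per million at recombinant junctions after averaging and control correction, and is expressed on a log scale as log10(CPM+1), with selection on chloramphenicol/ampicillin/kanamycin plus 0.1 mM IPTG against a chloramphenicol/ampicillin LB agar control.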
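Further: IS621 recombinase and bridge RNA in Escherichia coli cells.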

CGTACCTCTTGGGTTCTAACCTGTTGCTG (site CGTACCTCTGA)
recombinant barcode read abundance (log10): 0.0169

CGTACCTCTTGGGTTCTAACCTGTTGCTG (site CGTACCTCTTA)
recombinant barcode read abundance (log10): 0.0203

CGTAGCCCTTGGGTTCTAACCTGTTGCGG (site ACATATACTAA)
recombinant barcode read abundance (log10): 0.157

CGTAGCCCTTGGGTTCTAACCTGTTGCGG (site CGTAGCCCTCC)
recombinant barcode read abundance (log10): 0.691

CGTAGGGCTTGGGTTCTAACCTGTTGCCG (site AGTAGGGCTCT)
recombinant barcode read abundance (log10): 0.103

CGTAGGGCTTGGGTTCTAACCTGTTGCCG (site CGTAGGGCTCG)
recombinant barcode read abundance (log10): 0.102

CGTATAGCTTGGGTTCTAACCTGTTGCCT (site CGTATAGCTAG)
recombinant barcode read abundance (log10): 0.285

CGTATAGCTTGGGTTCTAACCTGTTGCCT (site CGTGAAGCTAG)
recombinant barcode read abundance (log10): 0.0599

CGTATATCTTGGGTTCTAACCTGTTGCCT (site CGTATATCTAG)
recombinant barcode read abundance (log10): 0

CGTATATCTTGGGTTCTAACCTGTTGCCT (site CGTGTAACTAG)
recombinant barcode read abundance (log10): 0.0247

CGTATCCCTTGGGTTCTAACCTGTTGCTG (site CGTATCCCTCA)
recombinant barcode read abundance (log10): 0.692

CGTATCCCTTGGGTTCTAACCTGTTGCTG (site CGTCTCCCTAA)
recombinant barcode read abundance (log10): 0.155

CGTATCTCTTGGGTTCTAACCTGTTGCCT (site CCAATCTCTAG)
recombinant barcode read abundance (log10): 0.063

CGTATCTCTTGGGTTCTAACCTGTTGCCT (site CGTATCTCTAG)
recombinant barcode read abundance (log10): 0.406

CGTATGACTTGGGTTCTAACCTGTTGCCT (site AGTATGACTAG)
recombinant barcode read abundance (log10): 0.28

CGTATGACTTGGGTTCTAACCTGTTGCCT (site CGTATGACTAG)
recombinant barcode read abundance (log10): 0.0395

CGTATGACTTGGGTTCTAACCTGTTGCCT (site GGTATGACTAG)
recombinant barcode read abundance (log10): 0.103

CGTATGACTTGGGTTCTAACCTGTTGCCT (site TGTATGACTAG)
recombinant barcode read abundance (log10): 0.05

CGTCAGCCTTGGGTTCTAACCTGTTGCCT (site CGTCAACCTAG)
recombinant barcode read abundance (log10): 0.0431

CGTCAGCCTTGGGTTCTAACCTGTTGCCT (site CGTCACCCTAG)
recombinant barcode read abundance (log10): 0.0486

CGTCAGCCTTGGGTTCTAACCTGTTGCCT (site CGTCAGCCTAG)
recombinant barcode read abundance (log10): 0.22

CGTCAGCCTTGGGTTCTAACCTGTTGCCT (site CGTCATCCTAG)
recombinant barcode read abundance (log10): 0.0681

CGTCGACCTTGGGTTCTAACCTGTTGCAT (site ACCTCTTCTTA)
recombinant barcode read abundance (log10): 0.0126

CGTCGACCTTGGGTTCTAACCTGTTGCAT (site CGTCGACCTAT)
recombinant barcode read abundance (log10): 0.128

CGTCGGACTTGGGTTCTAACCTGTTGCAG (site CGTCGGACTCT)
recombinant barcode read abundance (log10): 0.3

CGTCGGACTTGGGTTCTAACCTGTTGCAG (site TAGTTTGCTTC)
recombinant barcode read abundance (log10): 0.0182

CGTCTAGCTTGGGTTCTAACCTGTTGCAT (site CGTCTAGCTAT)
recombinant barcode read abundance (log10): 0.255

CGTCTAGCTTGGGTTCTAACCTGTTGCAT (site TCGGCCTCTTA)
recombinant barcode read abundance (log10): 0.0729

CGTGACCCTTGGGTTCTAACCTGTTGCTT (site CGGGACCCTAG)
recombinant barcode read abundance (log10): 0.0226

CGTGACCCTTGGGTTCTAACCTGTTGCTT (site CGTGACCCTAA)
recombinant barcode read abundance (log10): 0.691

CGTGAGACTTGGGTTCTAACCTGTTGCCT (site CGTAAGACTAG)
recombinant barcode read abundance (log10): 0.341

CGTGAGACTTGGGTTCTAACCTGTTGCCT (site CGTCAGACTAG)
recombinant barcode read abundance (log10): 0.203

CGTGAGACTTGGGTTCTAACCTGTTGCCT (site CGTGAGACTAG)
recombinant barcode read abundance (log10): 1.48

CGTGAGACTTGGGTTCTAACCTGTTGCCT (site CGTTAGACTAG)
recombinant barcode read abundance (log10): 0.0487

CGTGGAGCTTGGGTTCTAACCTGTTGCCA (site CGTCTAGCTTG)
recombinant barcode read abundance (log10): 0.136

CGTGGAGCTTGGGTTCTAACCTGTTGCCA (site CGTGGAGCTTG)
recombinant barcode read abundance (log10): 0.836

CGTGGTCCTTGGGTTCTAACCTGTTGCAT (site CGTGGTCCTAA)
recombinant barcode read abundance (log10): 0.414

CGTGGTCCTTGGGTTCTAACCTGTTGCAT (site CGTGGTCCTAC)
recombinant barcode read abundance (log10): 0.809

CGTGGTCCTTGGGTTCTAACCTGTTGCAT (site CGTGGTCCTAG)
recombinant barcode read abundance (log10): 0.398

CGTGGTCCTTGGGTTCTAACCTGTTGCAT (site CGTGGTCCTAT)
recombinant barcode read abundance (log10): 1.25

CGTGTAACTTGGGTTCTAACCTGTTGCTT (site CGAGCAACTAA)
recombinant barcode read abundance (log10): 0.0308

CGTGTAACTTGGGTTCTAACCTGTTGCTT (site CGTGTAACTAA)
recombinant barcode read abundance (log10): 0.212

CGTTATTCTTGGGTTCTAACCTGTTGCCT (site CGGAATTCTAG)
recombinant barcode read abundance (log10): 0.115

CGTTATTCTTGGGTTCTAACCTGTTGCCT (site CGTTATTCTAG)
recombinant barcode read abundance (log10): 0.0118

CGTTCACCTTGGGTTCTAACCTGTTGCAT (site ACAAATACTCC)
recombinant barcode read abundance (log10): 0.0056

CGTTCACCTTGGGTTCTAACCTGTTGCAT (site CGTTCACCTAT)
recombinant barcode read abundance (log10): 0.499

CGTTCCTCTTGGGTTCTAACCTGTTGCCT (site CATTCCTCTAG)
recombinant barcode read abundance (log10): 0.0798

CGTTCCTCTTGGGTTCTAACCTGTTGCCT (site CCTTCCTCTAG)
recombinant barcode read abundance (log10): 0.016

CGTTCCTCTTGGGTTCTAACCTGTTGCCT (site CGTTCCTCTAG)
recombinant barcode read abundance (log10): 0.519

CGTTCCTCTTGGGTTCTAACCTGTTGCCT (site CTTTCCTCTAG)
recombinant barcode read abundance (log10): 0.0942

CTAAAAGCTTGGGTTCTAACCTGTTGCAA (site CTAAAAGCTTT)
recombinant barcode read abundance (log10): 0.501

CTAAAAGCTTGGGTTCTAACCTGTTGCAA (site GGCTGTCCTAC)
recombinant barcode read abundance (log10): 0.628

CTAAAGACTTGGGTTCTAACCTGTTGCAC (site CCAAAGACTAT)
recombinant barcode read abundance (log10): 0.0891

CTAAAGACTTGGGTTCTAACCTGTTGCAC (site CTAAAGACTGT)
recombinant barcode read abundance (log10): 1.42

CTAAATACTTGGGTTCTAACCTGTTGCCT (site CTAAATACTAG)
recombinant barcode read abundance (log10): 0.17

CTAAATACTTGGGTTCTAACCTGTTGCCT (site CTAAATACTTA)
recombinant barcode read abundance (log10): 0.0116

CTAAATACTTGGGTTCTAACCTGTTGCGT (site CTAAATACTAC)
recombinant barcode read abundance (log10): 1.54

CTAAATACTTGGGTTCTAACCTGTTGCGT (site CTACATTCTAC)
recombinant barcode read abundance (log10): 0.00955

CTAAGAACTTGGGTTCTAACCTGTTGCGT (site CTAAGAACTAA)
recombinant barcode read abundance (log10): 0.0418

CTAAGAACTTGGGTTCTAACCTGTTGCGT (site CTAAGAACTAC)
recombinant barcode read abundance (log10): 2.1

CTAAGAACTTGGGTTCTAACCTGTTGCGT (site CTAAGAACTAG)
recombinant barcode read abundance (log10): 0.264

CTAAGAACTTGGGTTCTAACCTGTTGCGT (site CTAAGAACTAT)
recombinant barcode read abundance (log10): 0.615

CTAAGCGCTTGGGTTCTAACCTGTTGCCA (site CTAAGAGCTTG)
recombinant barcode read abundance (log10): 0.145

CTAAGCGCTTGGGTTCTAACCTGTTGCCA (site CTAAGCGCTTG)
recombinant barcode read abundance (log10): 0.647

CTAAGCGCTTGGGTTCTAACCTGTTGCCA (site CTAAGGGCTTG)
recombinant barcode read abundance (log10): 0.205

CTAAGCGCTTGGGTTCTAACCTGTTGCCA (site CTAAGTGCTTG)
recombinant barcode read abundance (log10): 0.0786

CTAAGCTCTTGGGTTCTAACCTGTTGCTT (site CTAAGCTCTAA)
recombinant barcode read abundance (log10): 0.0662

CTAAGCTCTTGGGTTCTAACCTGTTGCTT (site CTAAGCTCTCA)
recombinant barcode read abundance (log10): 0.133

CTAAGCTCTTGGGTTCTAACCTGTTGCTT (site CTAAGCTCTGA)
recombinant barcode read abundance (log10): 0.0802

CTAAGCTCTTGGGTTCTAACCTGTTGCTT (site CTAAGCTCTTA)
recombinant barcode read abundance (log10): 0.107

CTAAGGCCTTGGGTTCTAACCTGTTGCCT (site CTAAAGCCTAG)
recombinant barcode read abundance (log10): 0.377

CTAAGGCCTTGGGTTCTAACCTGTTGCCT (site CTAAGGCCTAG)
recombinant barcode read abundance (log10): 0.162

CTAAGGTCTTGGGTTCTAACCTGTTGCTA (site CTAAGGTCTTA)
recombinant barcode read abundance (log10): 1.64

CTAAGGTCTTGGGTTCTAACCTGTTGCTA (site TCTTTAGCTCT)
recombinant barcode read abundance (log10): 0.123

CTAAGTGCTTGGGTTCTAACCTGTTGCCA (site CTAAGAGCTTG)
recombinant barcode read abundance (log10): 0.0354

CTAAGTGCTTGGGTTCTAACCTGTTGCCA (site CTAAGCGCTTG)
recombinant barcode read abundance (log10): 0.0378

CTAAGTGCTTGGGTTCTAACCTGTTGCCA (site CTAAGGGCTTG)
recombinant barcode read abundance (log10): 0.0841

CTAAGTGCTTGGGTTCTAACCTGTTGCCA (site CTAAGTGCTTG)
recombinant barcode read abundance (log10): 0.35

CTAATATCTTGGGTTCTAACCTGTTGCCA (site CTAATATCTTG)
recombinant barcode read abundance (log10): 0.0293

CTAATATCTTGGGTTCTAACCTGTTGCCA (site CTCATATCTTG)
recombinant barcode read abundance (log10): 0.128

CTAATGTCTTGGGTTCTAACCTGTTGCCA (site CTAATGTCTAG)
recombinant barcode read abundance (log10): 0.622

CTAATGTCTTGGGTTCTAACCTGTTGCCA (site CTAATGTCTTG)
recombinant barcode read abundance (log10): 0.26

CTAATTACTTGGGTTCTAACCTGTTGCAA (site CTAAGTACTCT)
recombinant barcode read abundance (log10): 0.0716

CTAATTACTTGGGTTCTAACCTGTTGCAA (site CTAATTACTTT)
recombinant barcode read abundance (log10): 0.094

CTACAAGCTTGGGTTCTAACCTGTTGCCT (site CTACAAGCTAG)
recombinant barcode read abundance (log10): 1.34

CTACAAGCTTGGGTTCTAACCTGTTGCCT (site CTCCAAGCTAG)
recombinant barcode read abundance (log10): 0.279

Source: the supplement of paper PMC11208160
